Series [1] has as its system recombinant NL4-3 virus (nef section replaced with Renilla luciferase gene) in MT-2 cells. The experiment in a line: HIV cell culture assay (antiviral activity, luciferase readout). The series is classed as cell-based. The settings on record: NL43, MT-2 cells infected for 4-5 days with recombinant NL4-3 Renilla luciferase virus. The procedure: HIV cell culture assay—MT-2 cells, 293T cells and the proviral DNA clone of NL4-3 virus were obtained from the NIH AIDS Research and Reference Reagent Program. MT-2 cells were propagated in RPMI 1640 media supplemented with 10% heat inactivated fetal bovine serum (FBS), […]. The 293T cells were propagated in DMEM media supplemented with 10% heat inactivated FBS, […]. A recombinant NL4-3 proviral clone, in which a section of the nef gene was replaced with the Renilla luciferase gene, was used to make the reference virus used in these studies. The recombinant virus was prepared through transfection of the recombinant NL4-3 proviral clone into 293T cells using Transit-293 Transfection Reagent from Mirus Bio LLC (Madison, WI). Supernatent was harvested after 2-3 days and the amount of virus present was titered in MT-2 cells using luciferase enzyme activity as a marker by measuring luciferase enzyme activity. Luciferase was quantitated using the EnduRen Live Cell Substrate from Promega (Madison, WI). Antiviral activities of compounds toward the recombinant virus were quantified by measuring luciferase activity in MT-2 cells infected for 4-5 days with the recombinant virus in the presence of serial dilutions of the compound.
The 50% effective concentration (EC50) was calculated by using the exponential form of the median effect equation where (Fa)=1/[1+(ED50/drug conc.)m] (Johnson VA, Byington RT. Infectivity Assay. In Techniques in HIV Research. ed. Aldovini A, Walker BD. 71-76. New York: Stockton Press. 1990). The 50% inhibitory concentration (EC50) was calculated by using the exponential form of the median effect equation where percent inhibition=1/[1+(EC50/drug concentration)m], where m is a parameter that reflects the slope of the concentration-response curve.

A short description of series [2]: Compound cytotoxicity, XTT-based colorimetric assay. The format is cell-based. The settings on record: human; uninfected MT2 cells, day 4, XTT assay. The procedure: Compound cytotoxicity and the corresponding CC50 values were determined using the same protocol as described in the antiviral assay except that uninfected cells were used. Cytotoxicity was assessed on day 4 in uninfected MT2 cells by using a XTT (2,3-bis[2-Methoxy-4-nitro-5-sulfophenyl]-2H-tetrazolium-5-carboxyanilide inner salt)-based colorimetric assay (Sigma-Aldrich, St Louis, Mo).

pEC50: −log10 of the molar value.

Take `O=C(Cn1nc(C(F)F)c2c1C(F)(F)[C@@H]1C[C@H]21)N[C@@H](Cc1cc(F)cc(F)c1)c1nc2cc(CCC(F)(F)F)ccc2c(=O)n1-c1ccc(Cl)c2c(NS(=O)(=O)C3CC3)nn(CC(F)F)c12` [Example 24, N—((S)-1-(3-(4-chloro-3-(cyclopropanesulfonamido)-1-(2,2-difluoroethyl)-1H-indazol-7-yl)-4-oxo-7-(3,3,3-trifluoropropyl)-3,4-dihydroquinazolin-2-yl)-2-(3,5-difluorophenyl)ethyl)-2-((3bS,4aR)-3-(difluoromethyl)-5,5-difluoro-3b,4,4a,5-tetrahydro-1H-cyclopropa[3,4]cyclopenta[1,2-c]pyrazol-1-yl)acetamide]: in series [1], the pEC50 is 9.81. For the same compound, in series [2], the cytotoxic concentration (CC50) at 4 day was greater than 1000 nM.
In the case of `CCC(F)(F)c1ccc2c(=O)n(-c3ccc(Cl)c4c(NS(C)(=O)=O)nn(C)c34)c([C@H](Cc3cc(F)cc(F)c3)NC(=O)Cn3nc(C(F)F)c4c3C(F)(F)[C@@H]3C[C@H]43)nc2c1` [Example 20, N—((S)-1-(3-(4-chloro-1-methyl-3-(methylsulfonamido)-1H-indazol-7-yl)-7-(1,1-difluoropropyl)-4-oxo-3,4-dihydroquinazolin-2-yl)-2-(3,5-difluorophenyl)ethyl)-2-((3bS,4aR)-3-(difluoromethyl)-5,5-difluoro-3b,4,4a,5-tetrahydro-1H-cyclopropa[3,4]cyclopenta[1,2-c]pyrazol-1-yl)acetamide], the pEC50 in series [1] is 9.91. In series [2], the CC50 at 4 day was greater than 1000 nM.
For `CC(C)COc1ccc2c(=O)n(-c3ccc(Cl)c4c(NS(C)(=O)=O)nn(C)c34)c([C@H](Cc3cc(F)cc(F)c3)NC(=O)Cn3nc(C(F)F)c4c3C(F)(F)[C@@H]3C[C@H]43)nc2c1` [Example 12, N—((S)-1-(3-(4-chloro-1-methyl-3-(methylsulfonamido)-1H-indazol-7-yl)-7-isobutoxy-4-oxo-3,4-dihydroquinazolin-2-yl)-2-(3,5-difluorophenyl)ethyl)-2-((3bS,4aR)-3-(difluoromethyl)-5,5-difluoro-3b,4,4a,5-tetrahydro-1H-cyclopropa[3,4]cyclopenta[1,2-c]pyrazol-1-yl)acetamide], in that order: 9.96 and greater than 1000 nM.
Turning to `COc1cc(F)c2c(=O)n(-c3ccc(Cl)c4c(NS(=O)(=O)C5CC5)nn(CC(F)F)c34)c([C@H](Cc3cc(F)cc(F)c3)NC(=O)Cn3nc(C(F)F)c4c3C(F)(F)[C@@H]3C[C@H]43)nc2c1` [Example 8, N—((S)-1-(3-(4-chloro-3-(cyclopropanesulfonamido)-1-(2,2-difluoroethyl)-1H-indazol-7-yl)-5-fluoro-7-methoxy-4-oxo-3,4-dihydroquinazolin-2-yl)-2-(3,5-difluorophenyl)ethyl)-2-((3bS,4aR)-3-(difluoromethyl)-5,5-difluoro-3b,4,4a,5-tetrahydro-1H-cyclopropa[3,4]cyclopenta[1,2-c]pyrazol-1-yl)acetamide], in series [1], the pEC50 is 9.82. The compound also displayed a CC50 at 4 day in series [2] greater than 1000 nM.
For `CC(C)Cc1ccc2c(=O)n(-c3ccc(Cl)c4c(NS(C)(=O)=O)nn(C)c34)c([C@H](Cc3cc(F)cc(F)c3)NC(=O)Cn3nc(C(F)F)c4c3C(F)(F)[C@@H]3C[C@H]43)nc2c1` [Example 25, N—((S)-1-(3-(4-chloro-1-methyl-3-(methylsulfonamido)-1H-indazol-7-yl)-7-isobutyl-4-oxo-3,4-dihydroquinazolin-2-yl)-2-(3,5-difluorophenyl)ethyl)-2-((3bS,4aR)-3-(difluoromethyl)-5,5-difluoro-3b,4,4a,5-tetrahydro-1H-cyclopropa[3,4]cyclopenta[1,2-c]pyrazol-1-yl)acetamide], the negative logarithm of the EC50 (pEC50) in series [1] was 9.78. In series [2], this compound yielded a CC50 at 4 day greater than 1000 nM.
In the same order, the values of `CCCCOc1ccc2c(=O)n(-c3ccc(Cl)c4c(NS(C)(=O)=O)nn(C)c34)c([C@H](Cc3cc(F)cc(F)c3)NC(=O)Cn3nc(C(F)F)c4c3C(F)(F)[C@@H]3C[C@H]43)nc2c1` [Example 11, N—((S)-1-(7-butoxy-3-(4-chloro-1-methyl-3-(methylsulfonamido)-1H-indazol-7-yl)-4-oxo-3,4-dihydroquinazolin-2-yl)-2-(3,5-difluorophenyl)ethyl)-2-((3bS,4aR)-3-(difluoromethyl)-5,5-difluoro-3b,4,4a,5-tetrahydro-1H-cyclopropa[3,4]cyclopenta[1,2-c]pyrazol-1-yl)acetamide] are 9.68 and greater than 1000 nM.
For `CCCc1ccc2c(=O)n(-c3ccc(Cl)c4c(NS(C)(=O)=O)nn(C)c34)c([C@H](Cc3cc(F)cc(F)c3)NC(=O)Cn3nc(C(F)F)c4c3C(F)(F)[C@@H]3C[C@H]43)nc2c1` [Example 19, N—((S)-1-(3-(4-chloro-1-methyl-3-(methylsulfonamido)-1H-indazol-7-yl)-4-oxo-7-propyl-3,4-dihydroquinazolin-2-yl)-2-(3,5-difluorophenyl)ethyl)-2-((3bS,4aR)-3-(difluoromethyl)-5,5-difluoro-3b,4,4a,5-tetrahydro-1H-cyclopropa[3,4]cyclopenta[1,2-c]pyrazol-1-yl)acetamide], in that order: 10.20 and greater than 1000 nM.
As for `COc1ccc2c(=O)n(-c3ccc(Cl)c4c(NS(C)(=O)=O)nn(C)c34)c([C@H](Cc3cc(F)cc(F)c3)NC(=O)Cn3ccc(C4CCC4)n3)nc2c1` [Example 7, (S)—N-(1-(3-(4-chloro-1-methyl-3-(methylsulfonamido)-1H-indazol-7-yl)-7-methoxy-4-oxo-3,4-dihydroquinazolin-2-yl)-2-(3,5-difluorophenyl)ethyl)-2-(3-cyclobutyl-1H-pyrazol-1-yl)acetamide], the pEC50 in series [1] is 9.05. Further, the cytotoxic concentration (CC50) at 4 day in series [2] was greater than 1000 nM.
With `CS(=O)(=O)Nc1nn(CC(F)F)c2c(-n3c([C@H](Cc4cc(F)cc(F)c4)NC(=O)Cn4nc(C(F)F)c5c4C(F)(F)[C@@H]4C[C@H]54)nc4cc(C5CC5)ccc4c3=O)ccc(Cl)c12` [Example 30, N—((S)-1-(3-(4-chloro-1-(2,2-difluoroethyl)-3-(methylsulfonamido)-1H-indazol-7-yl)-7-cyclopropyl-4-oxo-3,4-dihydroquinazolin-2-yl)-2-(3,5-difluorophenyl)ethyl)-2-((3bS,4aR)-3-(difluoromethyl)-5,5-difluoro-3b,4,4a,5-tetrahydro-1H-cyclopropa[3,4]cyclopenta[1,2-c]pyrazol-1-yl)acetamide], the pEC50 in series [1] is 10.01. The cytotoxic concentration (CC50) at 4 day in series [2] is greater than 1000 nM.
For `Cc1ccc2c(=O)n(-c3ccc(Cl)c4c(NS(C)(=O)=O)nn(C)c34)c([C@H](Cc3cc(F)cc(F)c3)NC(=O)Cn3nc(C(F)F)c4c3C(F)(F)[C@@H]3C[C@H]43)nc2c1` [Example 15, N—((S)-1-(3-(4-chloro-1-methyl-3-(methylsulfonamido)-1H-indazol-7-yl)-7-methyl-4-oxo-3,4-dihydroquinazolin-2-yl)-2-(3,5-difluorophenyl)ethyl)-2-((3bS,4aR)-3-(difluoromethyl)-5,5-difluoro-3b,4,4a,5-tetrahydro-1H-cyclopropa[3,4]cyclopenta[1,2-c]pyrazol-1-yl)acetamide], in that order: 10.15 and greater than 1000 nM.

Source of the values: patent publication US20240374598A1, “INHIBITORS OF HUMAN IMMUNODEFICIENCY VIRUS REPLICATION” (ViiV HEALTHCARE UK (NO.5) LIMITED, priority 2018, published 2024).
